Laboratory results: publication PMC11077815, “Synthesis and antitumor activity of dolutegravir derivatives bearing 1,2,3-triazole moieties” (BMC Chemistry, 2024)

Legend:
A549 = assay: CCK8 cell viability assay, A549; type: cell-based, Human; conditions: for IC50: A549, 48 h, CCK8, mean ± SE
Procedure: (§1) At first, CCK8 assay was carried out to evaluate the anti-proliferative activity of dolutegravir-1,2,3-triazole derivatives against different cancer cell lines. The results of cell viability of three lung cancer cell lines A549, PC-9 and H460 in the presence of compounds 9 and 10 are summarized in Table 2. Cells were treated with different compounds at the concentration of 20 µM for 48 h. […] Human lung cancer cell lines A549, PC-9 and H460 were all obtained from ATCC. Cells were cultured in DMEM or RPMI 1640 medium containing 10% FBS and 1% penicillin/streptomycin at 37 °C with a 5% CO2-humidified atmosphere. CCK8 assay was used to measure cell viability. Cells with a density of 1 × 10^4 cells/well were seeded on the 96-well plates. After adhesion, cells were treated with different diluted compounds or vehicle control DMSO and continue cultured for 48 h. Then, CCK8 reagent was added for one hour incubation at 37 °C with 5% of CO2. Absorbance was measured using a microplate spectrophotometer (Thermo) at 450 nm. The ratio of cell viability of control was taken as 100%. […] Then IC50 of the compounds were investigated using the prism statistical software.

PC-9 = assay: CCK8 cell viability assay, PC-9; type: cell-based, Human; conditions: for IC50: PC9, 48 h, CCK8, mean ± SE
Procedure: as §1

[1] = test system: HRM (Human Renal Mesangial) cell line; assay: CCK8 cell viability assay, HRM normal cells (toxicity control); type: cell-based; conditions: HRM normal human cells, 48 h, CCK8, mean ± SE
Procedure: Based on these preliminary results, compounds 9c, 9e, 9f, 9i, 9k, 9 L, 9p, 9q, 9t, 9u, 9v, 9w, 10c, 10e which were effective to most of the cell lines were chosen for the measurement of the half-maximal inhibitory concentration (IC50). […] HRM (Human Renal Mesangial) cell line was used as a control to study the toxicity of these compounds against normal human cells.
CCK8 assay was used to measure cell viability. Cells with a density of 1 × 10^4 cells/well were seeded on the 96-well plates. After adhesion, cells were treated with different diluted compounds or vehicle control DMSO and continue cultured for 48 h. Then, CCK8 reagent was added for one hour incubation at 37 °C with 5% of CO2. Absorbance was measured using a microplate spectrophotometer (Thermo) at 450 nm. The ratio of cell viability of control was taken as 100%. […] Then IC50 of the compounds were investigated using the prism statistical software.

H460 = assay: CCK8 cell viability assay, H460; type: cell-based, Human; conditions: for IC50: H460, 48 h, CCK8, mean ± SE
Procedure: as §1

[2] = set-up: method as in PMID 35111871; conditions: preclinical study, dose 27 times greater than the clinical dose; cited from earlier work
[3] = A549, 20 µM, 48 h, CCK8, control = 100%
[4] = PC9, 20 µM, 48 h, CCK8, control = 100%
[5] = H460, 20 µM, 48 h, CCK8, control = 100%

IC50 (A549)	IC50 (PC-9)	IC50 (H460)	Compound	Cell viability (100%) (A549; [3])	Cell viability (100%) (PC-9; [4])	IC50 [1]	Cell viability (100%) (H460; [5])	viability at 20 µM (A549; Homo sapiens, A549, 20 µM, 48 h, CCK8, control = 100%)	viability at 20 µM (PC-9; Homo sapiens, PC-9, PC9, 20 µM, 48 h, CCK8, control = 100%)	fertility and teratogenic toxicity [2]	viability at 20 µM (H460; Homo sapiens, NCI-H460, H460, 20 µM, 48 h, CCK8, control = 100%)
> 50 µM	10.1 ± 0.71 µM	9.44 ± 1.53 µM	COc1c2n(cc(C(=O)Nc3cccc(-c4cn(Cc5cccc(Br)c5)nn4)c3)c1=O)C[C@@H]1OCC[C@@H](C)N1C2=O [Compound 10e]	96.13%	49.85%	> 50 µM	28.88%				
44.3 ± 1.21 µM	9.2 ± 0.65 µM	25.5 ± 0.43 µM	COc1cccc(-n2cc(-c3cccc(NC(=O)c4cn5c(c(OC)c4=O)C(=O)N4[C@H](C)CCO[C@H]4C5)c3)nn2)c1 [Compound 9 L]	73.36%	47.77%	43.3 ± 3.27 µM	20.32%				
			C[C@@H]1CCO[C@H]2Cn3cc(C(=O)NCc4ccc(F)cc4F)c(=O)c(O)c3C(=O)N12 [DTG, Dolutegravir]					109%	91.7%	no obvious fertility toxicity or teratogenic toxicity	27.2%
> 50 µM	11.6 ± 0.48 µM	16.2 ± 1.29 µM	COc1c2n(cc(C(=O)Nc3cccc(-c4cn(-c5ccccc5Cl)nn4)c3)c1=O)C[C@@H]1OCC[C@@H](C)N1C2=O [Compound 9v]	54.06%	47.42%	> 50 µM	38.13%				
